Experimental data from ChEMBL document CHEMBL1201862, “PubChem BioAssay data set” (2004).
Activity calls are given as the source filed them.

Columns and labels:
[1] = cytotoxicity in HEK-293T cells, dose response, cytotoxicity control for TCR NF-kB inhibitor project, luminescence, T-cell screen hits (AID 489026); format: functional, cell-based;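 note: cells exposed to compound about 14 hours before the viability readout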
[2] = microbe, parasite or virus in culture; format: functional; details: Mycobacterium tuberculosis
[3] = biological target: Voltage-dependent T-type calcium channel subunit alpha-1H (Homo sapiens, UniProt O95180); format: functional;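 note: channel activity triggered by adding a high calcium stimulation buffer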
Sequence of Voltage-dependent T-type calcium channel subunit alpha-1H (O95180 whole entry): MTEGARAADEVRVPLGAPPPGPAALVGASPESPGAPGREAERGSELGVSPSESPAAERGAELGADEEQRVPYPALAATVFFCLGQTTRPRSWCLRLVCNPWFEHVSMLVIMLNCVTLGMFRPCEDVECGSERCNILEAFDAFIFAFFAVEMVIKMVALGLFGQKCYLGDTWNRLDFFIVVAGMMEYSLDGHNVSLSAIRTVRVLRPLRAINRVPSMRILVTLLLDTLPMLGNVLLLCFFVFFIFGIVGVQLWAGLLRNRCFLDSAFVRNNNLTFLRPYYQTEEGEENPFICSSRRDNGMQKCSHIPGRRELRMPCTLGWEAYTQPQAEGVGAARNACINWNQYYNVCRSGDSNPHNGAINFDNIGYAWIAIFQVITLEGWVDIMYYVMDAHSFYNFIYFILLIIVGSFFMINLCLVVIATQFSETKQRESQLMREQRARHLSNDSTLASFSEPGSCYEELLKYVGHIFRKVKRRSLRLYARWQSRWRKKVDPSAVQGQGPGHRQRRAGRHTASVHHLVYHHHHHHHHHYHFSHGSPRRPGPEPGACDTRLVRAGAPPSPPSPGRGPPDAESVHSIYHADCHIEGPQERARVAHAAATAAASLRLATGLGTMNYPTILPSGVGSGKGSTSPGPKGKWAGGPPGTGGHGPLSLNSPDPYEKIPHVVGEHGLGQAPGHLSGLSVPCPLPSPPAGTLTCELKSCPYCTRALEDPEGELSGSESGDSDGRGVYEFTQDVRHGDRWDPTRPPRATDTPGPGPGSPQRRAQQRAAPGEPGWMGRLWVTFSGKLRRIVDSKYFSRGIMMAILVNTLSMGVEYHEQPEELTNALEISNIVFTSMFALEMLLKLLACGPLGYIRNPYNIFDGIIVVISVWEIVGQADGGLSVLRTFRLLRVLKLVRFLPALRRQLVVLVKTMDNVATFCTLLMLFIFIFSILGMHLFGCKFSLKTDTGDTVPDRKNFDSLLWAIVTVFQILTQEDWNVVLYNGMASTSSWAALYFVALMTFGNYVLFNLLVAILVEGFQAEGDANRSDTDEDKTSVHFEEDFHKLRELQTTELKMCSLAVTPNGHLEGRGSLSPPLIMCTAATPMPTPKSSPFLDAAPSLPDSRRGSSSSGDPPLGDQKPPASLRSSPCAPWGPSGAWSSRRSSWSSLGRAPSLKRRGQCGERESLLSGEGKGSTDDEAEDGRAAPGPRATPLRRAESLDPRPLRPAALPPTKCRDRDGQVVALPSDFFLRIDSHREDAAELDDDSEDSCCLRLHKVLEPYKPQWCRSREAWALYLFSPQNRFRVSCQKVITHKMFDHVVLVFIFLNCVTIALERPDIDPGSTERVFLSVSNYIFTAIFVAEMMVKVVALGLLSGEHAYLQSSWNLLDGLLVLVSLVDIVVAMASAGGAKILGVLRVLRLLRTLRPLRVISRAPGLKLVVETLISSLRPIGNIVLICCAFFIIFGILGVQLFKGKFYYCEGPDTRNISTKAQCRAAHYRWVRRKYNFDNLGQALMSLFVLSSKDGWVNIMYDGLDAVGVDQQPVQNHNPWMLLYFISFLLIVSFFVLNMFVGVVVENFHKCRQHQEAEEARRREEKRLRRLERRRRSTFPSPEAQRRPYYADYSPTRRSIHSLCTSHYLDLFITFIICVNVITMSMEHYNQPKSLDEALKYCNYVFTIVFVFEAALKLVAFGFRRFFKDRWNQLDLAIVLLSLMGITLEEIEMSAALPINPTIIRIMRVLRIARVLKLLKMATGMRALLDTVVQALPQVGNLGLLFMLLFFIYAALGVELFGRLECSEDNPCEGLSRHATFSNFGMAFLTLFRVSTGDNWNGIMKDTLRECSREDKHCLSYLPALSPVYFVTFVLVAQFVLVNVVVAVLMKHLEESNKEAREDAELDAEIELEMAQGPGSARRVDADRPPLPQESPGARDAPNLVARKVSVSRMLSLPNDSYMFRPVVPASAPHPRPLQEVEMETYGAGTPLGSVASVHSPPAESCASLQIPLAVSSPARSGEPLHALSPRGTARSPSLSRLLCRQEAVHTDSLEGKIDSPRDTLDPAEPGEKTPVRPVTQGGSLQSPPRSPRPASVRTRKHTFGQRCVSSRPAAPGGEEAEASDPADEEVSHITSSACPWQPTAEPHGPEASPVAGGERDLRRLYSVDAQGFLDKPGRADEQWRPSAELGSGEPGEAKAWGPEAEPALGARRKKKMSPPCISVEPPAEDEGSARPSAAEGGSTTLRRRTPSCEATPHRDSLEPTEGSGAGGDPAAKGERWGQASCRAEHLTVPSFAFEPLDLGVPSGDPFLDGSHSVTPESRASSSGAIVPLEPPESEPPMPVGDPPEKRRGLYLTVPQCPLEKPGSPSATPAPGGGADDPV

[4] = biological target: T1, Protein skinhead-1 (Caenorhabditis elegans, UniProt P34707); format: functional
T1 sequence (P34707 whole entry): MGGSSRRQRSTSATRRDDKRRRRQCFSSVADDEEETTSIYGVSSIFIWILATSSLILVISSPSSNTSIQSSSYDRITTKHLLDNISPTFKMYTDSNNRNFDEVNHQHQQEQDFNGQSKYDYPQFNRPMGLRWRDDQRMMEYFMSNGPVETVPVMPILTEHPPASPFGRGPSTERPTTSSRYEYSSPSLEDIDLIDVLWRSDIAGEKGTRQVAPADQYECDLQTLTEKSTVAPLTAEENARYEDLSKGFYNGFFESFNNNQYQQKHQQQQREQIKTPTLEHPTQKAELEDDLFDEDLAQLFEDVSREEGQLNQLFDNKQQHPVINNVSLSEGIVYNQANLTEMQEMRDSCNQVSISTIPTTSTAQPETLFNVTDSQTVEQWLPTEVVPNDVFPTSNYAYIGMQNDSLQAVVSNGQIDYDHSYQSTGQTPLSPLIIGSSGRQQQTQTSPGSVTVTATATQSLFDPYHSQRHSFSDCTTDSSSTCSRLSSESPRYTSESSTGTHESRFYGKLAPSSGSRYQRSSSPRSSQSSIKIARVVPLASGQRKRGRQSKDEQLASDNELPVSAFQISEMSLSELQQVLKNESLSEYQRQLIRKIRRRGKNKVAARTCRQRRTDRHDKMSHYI

[5] = test system: H9c2; assay: cells; format: functional, cell-based; details: Rattus norvegicus, H9c2, Myocardium;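 note: confirmatory concentration-response retest of ultra-high-throughput screening hits for modulation of myocardial damage; cell death induced by hydrogen peroxide oxidative stress; compound pretreatment for 60 min then peroxide exposure for 2 h; potency is for protecting the cells against peroxide damage rather than for killing them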
[6] = Luminescence Cell-Based Dose Confirmation HTS to Identify Activators of 5'UTR Stem-Loop Driven Alpha-Synuclein mRNA Translation in H4 Neuroglioblastoma Cells. [Related pubchem assays: 1829 (Project Summary), 1814 (Primary HTS)]; format: functional
[7] = biological target: Nonstructural protein 1 (Influenza A virus, UniProt Q194T2); format: functional, Influenza A virus (A/California/07/2009(H1N1))
Sequence of Nonstructural protein 1 (Q194T2 whole entry): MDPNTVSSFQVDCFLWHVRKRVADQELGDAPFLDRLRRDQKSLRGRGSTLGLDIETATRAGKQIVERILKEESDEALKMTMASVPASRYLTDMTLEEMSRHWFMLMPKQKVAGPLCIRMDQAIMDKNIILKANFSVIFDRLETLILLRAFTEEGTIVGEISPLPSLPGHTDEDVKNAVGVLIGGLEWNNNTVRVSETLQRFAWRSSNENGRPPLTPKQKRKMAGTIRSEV

[8] = Luminescence Cell-Based Dose Response HTS to Identify Activators of Luciferase Translation or Activity in H4 […] Cells. [Related pubchem assays: 1829 (Project Summary), 1814 (Primary HTS)]; format: functional
[9] = test system: H4; assay: Luminescence Cell-Based Dose Response HTS to Identify Activators of 5'UTR Stem-Loop Driven Prion Protein mRNA Translation in H4 Neuroglioblastoma Cells. [Related pubchem assays: 1829 (Project Summary), 1814 (Primary HTS)]; format: functional; details: Homo sapiens
[10] = biological target: Cytochrome P450 2D6 (Homo sapiens, UniProt P10635);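 note: CYP2D6 member of a cytochrome P450 panel assay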
Sequence of Cytochrome P450 2D6 (P10635 whole entry): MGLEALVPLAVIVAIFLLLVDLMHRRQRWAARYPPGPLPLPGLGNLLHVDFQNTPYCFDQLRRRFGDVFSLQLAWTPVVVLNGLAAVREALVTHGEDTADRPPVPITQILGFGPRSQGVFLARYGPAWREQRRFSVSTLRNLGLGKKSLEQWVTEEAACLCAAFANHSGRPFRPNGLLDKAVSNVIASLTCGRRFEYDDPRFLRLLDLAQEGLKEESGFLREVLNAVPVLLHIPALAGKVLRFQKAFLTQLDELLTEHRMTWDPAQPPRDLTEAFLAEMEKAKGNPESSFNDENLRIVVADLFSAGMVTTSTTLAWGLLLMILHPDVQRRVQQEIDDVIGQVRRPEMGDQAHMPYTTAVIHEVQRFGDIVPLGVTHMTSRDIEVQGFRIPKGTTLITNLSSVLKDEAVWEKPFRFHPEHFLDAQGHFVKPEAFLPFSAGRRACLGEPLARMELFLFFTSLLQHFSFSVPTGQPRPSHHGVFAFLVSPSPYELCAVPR

[11] = cytotoxicity toward NIH3T3 fibroblasts, dose response, counter-screen, cell-based, ATP luminescence, mouse fibroblasts (AID 2010); format: functional;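 note: cells exposed to compound for about 90 hours before reading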
[12] = inhibitors of intracellular T. cruzi replication, confirmation, NIH3T3 host cells, beta-gal luminescence (AID 2044); format: functional, cell-based;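 note: intracellular parasites grown in NIH/3T3 mouse fibroblasts as host cells; luminescent beta-galactosidase reporter signal from transgenic T. cruzi replicating inside host cells; inhibitors lower the luminescence signal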
[13] = biological target: T2, Carboxy-terminal domain RNA polymerase II polypeptide A small phosphatase 1 (Homo sapiens, UniProt Q9GZU7); assay: inhibitors of CTDSP1, concentration-response testing, biochemical assay, absorbance-based, actives from ultra-high-throughput screening (AID 540297); format: functional
T2 sequence (Q9GZU7 whole entry): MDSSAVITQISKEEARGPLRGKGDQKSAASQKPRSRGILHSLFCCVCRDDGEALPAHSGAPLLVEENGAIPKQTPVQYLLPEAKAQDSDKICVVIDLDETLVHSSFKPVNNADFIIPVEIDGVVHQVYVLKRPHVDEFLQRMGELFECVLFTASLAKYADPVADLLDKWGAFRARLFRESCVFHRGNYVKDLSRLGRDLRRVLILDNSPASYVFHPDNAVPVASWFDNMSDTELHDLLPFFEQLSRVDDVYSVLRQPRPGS

[14] = biological target: T3, Cytochrome P450 1A2 (Homo sapiens, UniProt P05177);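 note: PubChem cytochrome P450 panel assay, CYP1A2 panel member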
T3 sequence (P05177 whole entry): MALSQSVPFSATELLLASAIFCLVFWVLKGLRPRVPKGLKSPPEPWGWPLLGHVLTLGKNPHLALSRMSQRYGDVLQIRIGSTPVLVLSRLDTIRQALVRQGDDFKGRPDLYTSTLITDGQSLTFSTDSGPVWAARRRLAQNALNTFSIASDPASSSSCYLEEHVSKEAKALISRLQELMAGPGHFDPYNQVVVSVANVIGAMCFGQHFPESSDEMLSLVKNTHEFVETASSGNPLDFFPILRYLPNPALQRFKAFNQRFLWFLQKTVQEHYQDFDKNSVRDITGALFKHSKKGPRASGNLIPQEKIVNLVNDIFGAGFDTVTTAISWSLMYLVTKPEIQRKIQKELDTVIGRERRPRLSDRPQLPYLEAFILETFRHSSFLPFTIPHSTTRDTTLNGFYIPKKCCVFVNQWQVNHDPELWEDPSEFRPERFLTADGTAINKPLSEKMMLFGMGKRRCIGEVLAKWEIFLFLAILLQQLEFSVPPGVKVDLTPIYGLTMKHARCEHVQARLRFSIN

[15] = biological target: Cytochrome P450 2C19 (Homo sapiens, UniProt P33261); assay: Cytochrome panel assay with activity outcomes. Panel member name: p450-cyp2c19 Compounds with AC50 equal or less than 10 uM are considered active; format: functional; details: read-out: AC50
Sequence of Cytochrome P450 2C19 (P33261 whole entry): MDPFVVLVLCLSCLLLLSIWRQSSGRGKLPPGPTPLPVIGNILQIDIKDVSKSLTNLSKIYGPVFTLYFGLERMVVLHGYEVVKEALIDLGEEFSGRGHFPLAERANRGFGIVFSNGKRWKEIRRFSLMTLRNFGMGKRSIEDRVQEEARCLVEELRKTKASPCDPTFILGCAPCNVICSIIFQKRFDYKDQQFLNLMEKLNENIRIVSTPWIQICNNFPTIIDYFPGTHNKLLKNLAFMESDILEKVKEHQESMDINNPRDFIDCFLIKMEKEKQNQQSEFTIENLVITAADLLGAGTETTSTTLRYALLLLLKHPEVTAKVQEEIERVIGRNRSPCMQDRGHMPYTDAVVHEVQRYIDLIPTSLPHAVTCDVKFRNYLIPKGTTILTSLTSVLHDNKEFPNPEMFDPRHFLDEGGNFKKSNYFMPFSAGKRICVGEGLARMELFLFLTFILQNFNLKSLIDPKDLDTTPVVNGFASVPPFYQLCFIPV

[16] = MC4R antagonists, dose response, counter-screen for LGR2 antagonist project, cell-based, plate reader, cherry pick (AID 743444); format: functional;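 note: transfected HEK 293 cells stimulated with alpha-MSH peptide; potency of inhibitors of the alpha-MSH evoked signal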
[17] = HepG2 cell cytotoxicity, dose response, cytotoxicity control, plate reader, cherry-pick, antagonist series (AID 743416); format: functional, cell-based
[18] = LGR2 antagonists, dose response, cell-based, HEK293, CRE-luciferase reporter, cherry pick, set 2 (AID 743343); format: functional;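 note: transfected cells were stimulated with diluted bursicon conditioned medium after compound addition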
[19] = cells; format: functional, cell-based
[20] = test system: INS1; assay: beta cell apoptosis inhibitors, cytokine rescue, dose response, luminescence, retest (AID 449756); format: functional, cell-based; details: Rattus norvegicus;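 note: cell death triggered by IL-1 beta plus TNF-alpha plus IFN-gamma mixture; protective hits raise ATP signal compared with cytokine alone wells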
[21] = cells; format: functional, cell-based; remark: listed apart in the source

In the case of `O=C(Nc1cccc2ccccc12)OC1C=CS(=O)(=O)C1` (stereo not drawn), the IC50 [1] is reported as > 80 µM (inactive).

For `COc1ccc(-c2cc(C(=O)N(C)CC(=O)Nc3cccc(F)c3)c3ccccc3n2)cc1`, the CC50 [2] was 36.5 µM (active).

In the case of `O=C(CN(Cc1ccccc1)C(=O)c1cc2c(s1)CCC2)NCc1cccs1`, the EC50 [3] is reported as 5.32 µM (active).

For `COC(=O)c1nc(-c2ccccc2)oc1N(C)C`, the IC50 [4] was > 100 µM (inactive).

For `O=C(COc1ccccc1)Nc1nnc(-c2ccc(Cl)s2)o1`, the EC50 [3] was 25.7 µM (active).

For `O=C(Oc1ccccc1)N1CCN(c2ccc(F)cc2)CC1`, the IC50 [4] was 78.7 µM (inactive).

In the case of `COc1ccc(-c2cc(-c3nnc(COC(=O)c4ccncc4)o3)c3ccccc3n2)cc1OC`, the IC50 [5] is reported as 9.82 µM (active).

For `S=C(NCc1ccccc1)NCC1COc2ccccc2O1` (stereo not drawn), the EC50 [3] was 3.17 µM (active).

In the case of `C=CCNc1ncnc2sc(SC)nc12`, the IC50 [4] is reported as > 100 µM (inactive).

With `Cc1ccc(C)c(CSc2nc(O)c3c[nH]nc3n2)c1` the IC50 [1] was > 80 µM (inactive).

With `O=C(Nc1nccs1)c1ccc(-c2ccccc2[N+](=O)[O-])o1` the IC50 [4] was > 100 µM (inactive).

In the case of `CC#CC(=O)N1CCC(n2nccc2NC(=O)c2ccc3c(c2)OCO3)CC1`, the IC50 [1] is reported as > 80 µM (inactive).

With `O=C(CN1C(=O)COc2ccccc21)Nc1ccc(F)cc1` the EC50 [6] was 11.9 µM (active), the IC50 [7] was 3.73 µM (active) and the EC50 [8] was 13.8 µM (active). For the same compound, the EC50 [9] was 113 µM (active).

For `c1ccc(CN2c3ccccc3-c3nc4ccccc4n3C2c2ccccn2)cc1` (stereo not drawn), the AC50 [10] was 15.8 µM (inconclusive) and the EC50 [3] was 1.94 µM (active).

With `Cc1cccc2sc(NC(=O)C3CCN(S(=O)(=O)c4cc([N+](=O)[O-])ccc4Cl)CC3)nc12` the EC50 [11] was > 30 µM (not active), the EC50 [12] was 0.63 µM (active) and the IC50 [13] was 3.44 µM (active).

In the case of `Oc1ccccc1C=NNC(=S)Nc1ccc(F)cc1`, the IC50 [7] is reported as 12.7 µM (active).

For `COc1cccc(C(=O)NCC(=O)N2CCC3(CC2)NCCc2[nH]cnc23)c1`, the IC50 [4] was > 100 µM (inactive).

For `COc1cccc(/C=N/NC(=O)c2nc(-c3ccccc3)cc(-c3ccccc3)n2)c1`, the AC50 [14] was 3.16 µM (inconclusive), the AC50 [15] was 0.794 µM (inconclusive) and the IC50 [5] was > 79 µM (inactive).

With `N#C[C@@H]1[C@H](c2ccc(C#Cc3cccc(F)c3)cc2)[C@@H](CO)N1C(=O)C1CCCC1` the AC50 [16] was 8.4 µM (active), the AC50 [17] was 27.1 µM (active) and the AC50 [18] was 16.5 µM (active).

With `CCN(CC)c1ccc(/C=N/NC(=O)c2cccc(S(=O)(=O)Nc3ccccc3OC)c2)c(O)c1` the EC50 [19] was 85.3 µM (active), the AC50 [20] was 0.237 µM (active) and the EC50 [21] was 2.89 µM (active). For the same compound, the IC50 [1] was > 80 µM (inactive).
